These are literature values, as cited in patent US12403113B2, “Composition containing creatine fatty ester for use in medicine” (COMMISSARIAT À L'ÉNERGIE ATOMIQUE ET AUX ÉNERGIES …, priority 2019, dated 2025).

Data set [1] concerns CrT−/y mice. The conditions noted are these: 0.02 mg/g body/weight/day for 5 days, intracerebroventricular; preliminary.
Data set [2] deals with Huntington's disease patients. The conditions noted are these: 8 g/day for 16 weeks, 64 patients.
In data set [3] the test system is DMD patients. The conditions noted are these: 5 g of creatine/day for 8 weeks, oral.
Data set [4] concerns CTD patients. Conditions: pure creatine.
For data set [5], the system named is mice.

Take `CCCCCCCCCCCCOC(=O)CN(C)C(=N)N` [DCE, dodecyl creatine ester]: the “performance in the object recognition task” value in data set [1] is listed as “significantly improves”.

As for `CN(CC(=O)O)C(=N)N` [creatine, 2-1(methylguanidino) acetic acid], the “serum 8-hydroxy-2′-deoxyguanosine (marker of oxidative DNA damage)” value in data set [2] is “marked decrease”. In data set [3], the “muscle Phosphocreatine/Inorganic Phosphate ratio” value is on record as “significantly improved” and the “muscle strength in short term” value is “preserved”. The tolerability entry in data set [3] (18 patients vs placebo) is reported as “well tolerated”. Further, the “improvement in CTD patients” value in data set [4] is reported as “does not lead to any improvement”. The health and longevity entry in data set [5] was “improves health and longevity”.
